In US20260226048A1, “MULTI-CYCLIC IRAK AND FLT3 INHIBITING COMPOUNDS AND USES THEREOF” (CHILDREN'S HOSPITAL MEDICAL CENTER, priority 2023, published 2026):
Like-named read-outs stand apart in the source and are kept apart here.

What was measured:
[1] = target: T1, IRAK1 (Homo sapiens, UniProt P51617); experiment: RBC HotSpot Kinase Assay, IRAK1; format: biochemical; conditions: isolated kinase enzyme, 33P-ATP, P81 filter-binding
T1 construct: purchased Reaction Biology (RBC HotSpot)
Procedure, shortened: (§1)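 Reactions ran in 20 mM Hepes (pH 7.5) containing 10 mM MgCl2, 1 mM EGTA, 0.1 mM Na3VO4, 2 mM DTT, 0.02 mg/ml BSA, 0.01% Brij35 and 1% DMSO, plus required cofactors. Functional activity readout on the expressible enzyme form, sometimes C-terminally truncated or lacking receptor regulatory regions.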

[2] = target: T2, FLT3 (Homo sapiens, UniProt P36888); experiment: RBC HotSpot Kinase Assay, FLT3; format: biochemical; parameters: purchased Reaction Biology (RBC HotSpot); conditions: isolated kinase enzyme, 33P-ATP, P81 filter-binding
T2 sequence (P36888 27-993): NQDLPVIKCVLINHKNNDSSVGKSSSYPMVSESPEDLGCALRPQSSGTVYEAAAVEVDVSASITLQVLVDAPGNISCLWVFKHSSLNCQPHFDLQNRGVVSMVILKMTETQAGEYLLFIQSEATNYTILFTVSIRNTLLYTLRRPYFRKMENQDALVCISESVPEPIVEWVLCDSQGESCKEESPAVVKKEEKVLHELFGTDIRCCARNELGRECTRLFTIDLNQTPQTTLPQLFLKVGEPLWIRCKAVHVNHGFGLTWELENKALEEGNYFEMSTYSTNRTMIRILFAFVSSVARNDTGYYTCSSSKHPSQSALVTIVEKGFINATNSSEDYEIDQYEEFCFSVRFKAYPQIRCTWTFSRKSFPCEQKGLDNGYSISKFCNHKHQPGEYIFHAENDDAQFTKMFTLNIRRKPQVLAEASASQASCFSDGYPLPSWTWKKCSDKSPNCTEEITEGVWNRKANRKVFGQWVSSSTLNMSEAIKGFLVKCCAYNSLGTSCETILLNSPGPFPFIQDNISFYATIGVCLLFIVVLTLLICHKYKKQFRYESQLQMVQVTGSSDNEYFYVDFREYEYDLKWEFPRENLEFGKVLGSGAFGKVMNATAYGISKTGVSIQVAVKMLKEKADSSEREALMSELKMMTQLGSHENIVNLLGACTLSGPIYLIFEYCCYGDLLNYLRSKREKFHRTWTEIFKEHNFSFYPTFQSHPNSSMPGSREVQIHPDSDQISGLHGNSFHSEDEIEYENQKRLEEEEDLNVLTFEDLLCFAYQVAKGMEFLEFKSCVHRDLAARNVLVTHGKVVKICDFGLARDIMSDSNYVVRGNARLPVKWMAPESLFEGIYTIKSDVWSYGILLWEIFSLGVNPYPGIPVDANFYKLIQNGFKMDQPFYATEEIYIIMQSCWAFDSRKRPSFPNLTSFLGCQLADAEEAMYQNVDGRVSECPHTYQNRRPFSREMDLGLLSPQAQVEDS
Procedure, shortened: as §1

[3] = system: MOLM14 D835Y cells; experiment: MOLM14 D835Y cell viability assay (Cell Titer Glo); format: cell-based; conditions: Homo sapiens, MOLM-14, 48 h, read-out: MOLM14 D835Y IC50
Procedure, shortened: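 Luminescent ATP read-out (CellTiter-Glo, 15 min room temperature) taken 48 h after compound addition. Cells were MOLM14 carrying FLT3 D835Y or F691L mutations, plated at 1000 cells per well.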

[4] = target: T3, IRAK4 (Homo sapiens, UniProt Q9NWZ3); experiment: RBC HotSpot Kinase Assay, IRAK4; format: biochemical; parameters: purchased Reaction Biology (RBC HotSpot); conditions: isolated kinase enzyme, 33P-ATP, P81 filter-binding
T3 sequence (Q9NWZ3 1-460): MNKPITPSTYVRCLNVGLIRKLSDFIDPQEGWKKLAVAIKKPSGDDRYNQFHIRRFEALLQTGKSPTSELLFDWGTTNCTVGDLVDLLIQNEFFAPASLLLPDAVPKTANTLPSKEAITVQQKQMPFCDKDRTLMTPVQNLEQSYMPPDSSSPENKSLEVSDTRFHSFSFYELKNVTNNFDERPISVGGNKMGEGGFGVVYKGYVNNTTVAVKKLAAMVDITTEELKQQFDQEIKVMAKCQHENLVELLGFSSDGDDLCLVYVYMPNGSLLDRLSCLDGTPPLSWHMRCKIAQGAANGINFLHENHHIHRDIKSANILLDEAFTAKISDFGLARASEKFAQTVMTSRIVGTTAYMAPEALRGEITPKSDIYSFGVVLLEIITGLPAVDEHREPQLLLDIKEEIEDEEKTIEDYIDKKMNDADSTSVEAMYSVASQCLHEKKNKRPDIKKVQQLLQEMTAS
Procedure, shortened: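 Radiometric filter-binding activity assay with isolated recombinant kinase (construct may be truncated or catalytic domain only) in 20 mM Hepes pH 7.5, 10 mM MgCl2, 1 mM EGTA, 2 mM DTT, 1% DMSO. Compound preincubated 20 min with kinase/substrate; reaction started with 33P-ATP, run 2 h at room temperature.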

[5] = system: MOLM14 F691L cells; experiment: MOLM14 F691L cell viability assay (Cell Titer Glo); format: cell-based; conditions: Homo sapiens, read-out: MOLM14 F691L IC50
Procedure: Both cell lines have activated FLT3 receptors, each of which carry additional resistance mutations in the kinase domain (D835Y and F691L, respectively).
For viability/cytotoxicity assessments, cells were seeded into 1536-well white polystyrene tissue culture-treated Greiner plates using a Multidrop Combi dispenser (ThermoFisher), in final volume 5 μL of growth media per well, at a density of 1000 cells per well. […] Plates were incubated for 48 hours at standard incubator conditions covered by a stainless steel gasketed lid to prevent evaporation. 48 hours post compound addition, 3 μL of Cell Titer Glo (Promega) were added to each well and plates were incubated at room temperature for 15 minutes with the stainless-steel lid in place. Luminescence readings were taken using a Viewlux imager (PerkinElmer) with a 2 second exposure time per plate.

[6] = cell viability, Cell Titer Glo, 48 hours
[7] = MOLM-14, cell viability, Cell Titer Glo, 48 hours

T1 sequence (P51617 whole entry): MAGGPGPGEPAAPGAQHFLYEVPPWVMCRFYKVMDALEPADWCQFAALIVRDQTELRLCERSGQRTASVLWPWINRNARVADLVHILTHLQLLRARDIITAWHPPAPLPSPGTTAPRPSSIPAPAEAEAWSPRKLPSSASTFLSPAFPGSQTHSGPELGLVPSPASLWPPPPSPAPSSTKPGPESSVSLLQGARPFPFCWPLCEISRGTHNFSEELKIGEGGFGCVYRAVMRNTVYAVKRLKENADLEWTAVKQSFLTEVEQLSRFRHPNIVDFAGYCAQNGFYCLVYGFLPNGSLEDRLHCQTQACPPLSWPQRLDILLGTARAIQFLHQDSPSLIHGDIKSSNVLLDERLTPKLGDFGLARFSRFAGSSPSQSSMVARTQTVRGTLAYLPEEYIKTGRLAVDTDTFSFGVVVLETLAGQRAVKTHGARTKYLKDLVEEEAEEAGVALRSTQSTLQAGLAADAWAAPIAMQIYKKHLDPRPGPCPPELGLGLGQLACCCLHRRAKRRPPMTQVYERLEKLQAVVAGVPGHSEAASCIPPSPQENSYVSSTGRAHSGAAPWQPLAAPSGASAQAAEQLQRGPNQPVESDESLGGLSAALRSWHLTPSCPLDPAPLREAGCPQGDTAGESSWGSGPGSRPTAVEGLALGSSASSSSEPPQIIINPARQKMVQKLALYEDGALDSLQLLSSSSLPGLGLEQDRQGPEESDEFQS

| Structure (SMILES) | IC50 [1] | IC50 [2] | IC50 [3, 6] | IC50 [4] | IC50 [5, 7] | IC50 [3] | IC50 ([5]; MOLM-14, 48 h) |
| --- | --- | --- | --- | --- | --- | --- | --- |
| c1ncc(-c2cnc3cc(OC4CC4)c(C4CC4)nn23)nc1N[C@@H]1CCCNC1 [Compound 15a, (R)-6-(7-cyclopropoxy-6-cyclopropylimidazo[1,2-b]pyridazin-3-yl)-N-(piperidin-3-yl)pyrazin-2-amine] | 258 nM | < 0.5 nM | 45 nM | 18 nM | 113 nM |  |  |
| COc1cc2ncc(-c3nc(N[C@H]4CNC[C@@H]4F)ncc3F)n2nc1C1CCC1 [Compound 52a, 4-(6-cyclobutyl-7-methoxyimidazo[1,2-b]pyridazin-3-yl)-5-fluoro-N-((3S,4S)-4-fluoropyrrolidin-3-yl)pyrimidin-2-amine] | 0.8 nM | < 0.5 nM | 3 nM | 0.9 nM | 45 nM |  |  |
| COc1cc2ncc(-c3nc(N[C@H]4CNC[C@@H]4F)ncc3F)n2nc1C1CCCCC1 [Compound 64a, 4-(6-cyclohexyl-7-methoxyimidazo[1,2-b]pyridazin-3-yl)-5-fluoro-N-((3S,4S)-4-fluoropyrrolidin-3-yl)pyrimidin-2-amine] | < 0.5 nM | < 0.5 nM | 6 nM | < 0.5 nM | 57 nM |  |  |
| FC(F)COc1cc2ncc(-c3cncc(N[C@H]4CNCC[C@@H]4F)n3)n2nc1C1CC1 [Compound 7a, 6-(6-cyclopropyl-7-(2,2-difluoroethoxy)imidazo[1,2-b]pyridazin-3-yl)-N-((3 S,4S)-4-fluoropiperidin-3-yl)pyrazin-2-amine] | 73 nM | < 0.5 nM | 10 nM | 2 nM | 20 nM |  |  |
| COc1cc2ncc(-c3nc(N[C@H]4CNC[C@@H]4F)ncc3F)n2nc1C1CC(C)(C)C1 [Compound 55a, 4-(6-(3,3-dimethylcyclobutyl)-7-methoxyimidazo[1,2-b]pyridazin-3-yl)-5-fluoro-N-((3S,4S)-4-fluoropyrrolidin-3-yl)pyrimidin-2-amine] | 5 nM | < 0.5 nM | 28 nM | 2 nM | 225 nM |  |  |
| COc1cc2ncc(-c3nc(N[C@@H]4CCCNC4)ncc3F)n2nc1N1CCCS1(=O)=O [Compound 110a, (R)-2-(3-(5-fluoro-2-(piperidin-3-ylamino)pyrimidin-4-yl)-7-methoxyimidazo[1,2-b]pyridazin-6-yl)isothiazolidine 1,1-dioxide] | 23 nM | < 0.5 nM | 18 nM | 20 nM | 113 nM |  |  |
| COc1cc2ncc(-c3ccnc(N[C@H]4CNC[C@@H]4F)n3)n2nc1C1COC1 [Compound 95a, N-((3S,4S)-4-fluoropyrrolidin-3-yl)-4-(7-methoxy-6-(oxetan-3-yl)imidazo[1,2-b]pyridazin-3-yl)pyrimidin-2-amine] | 300 nM | 0.7 nM | 113 nM | 6 nM | 2000 nM |  |  |
| COc1cc2ncc(-c3nc(N[C@H]4CNC[C@@H]4F)ncc3F)n2nc1C12CC(C1)C2 [Compound 67a, 4-(6-(bicyclo[1.1.1]pentan-1-yl)-7-methoxyimidazo[1,2-b]pyridazin-3-yl)-5-fluoro-N-((3S,4S)-4-fluoropyrrolidin-3-yl)pyrimidin-2-amine] | 1 nM | < 0.5 nM | 9 nM | 0.9 nM | 57 nM |  |  |
| COc1cc2ncc(-c3nc(N[C@@H]4CCCNC4)ncc3F)n2nc1C1CCCC1 [Compound 62a, (R)-4-(6-cyclopentyl-7-methoxyimidazo[1,2-b]pyridazin-3-yl)-5-fluoro-N-(piperidin-3-yl)pyrimidin-2-amine] | 0.6 nM | < 0.5 nM | 1 nM | < 0.5 nM | 9 nM |  |  |
| COc1cc2ncc(-c3ccnc(N[C@@H]4CCCNC4)n3)n2nc1C1COC1 [Compound 96a, (R)-4-(7-methoxy-6-(oxetan-3-yl)imidazo[1,2-b]pyridazin-3-yl)-N-(piperidin-3-yl)pyrimidin-2-amine] | 1790 nM | 0.5 nM | 16 nM | 62 nM | 160 nM |  |  |
| COc1cnc(N[C@@H]2CCCNC2)nc1-c1cnc2cc(OC)c(C3CC3)nn12 [Compound 105a, (R)-4-(6-cyclopropyl-7-methoxyimidazo[1,2-b]pyridazin-3-yl)-5-methoxy-N-(piperidin-3-yl)pyrimidin-2-amine] | > 10000 nM | 33 nM | 711 nM | 259 nM | 6340 nM |  |  |
| COc1cc2ncc(-c3nc(N[C@H]4CNCC[C@@H]4F)ncc3F)n2nc1C1CCCCC1 [Compound 66a, 4-(6-cyclohexyl-7-methoxyimidazo[1,2-b]pyridazin-3-yl)-5-fluoro-N-((3S,4S)-4-fluoropiperidin-3-yl)pyrimidin-2-amine] | < 0.5 nM | < 0.5 nM |  | 0.6 nM |  | 4 nM | 28 nM |
| COc1cc2ncc(-c3nc(N[C@H]4CNC[C@@H]4F)ncc3F)n2nc1C1COC1 [Compound 93a, 5-fluoro-N-((3S,4S)-4-fluoropyrrolidin-3-yl)-4-(7-methoxy-6-(oxetan-3-yl)imidazo[1,2-b]pyridazin-3-yl)pyrimidin-2-amine] | 5 nM | < 0.5 nM | 13 nM | < 0.5 nM | 142 nM |  |  |
| COc1cc2ncc(-c3ccnc(N[C@H]4CNC[C@@H]4F)n3)n2nc1C1CCCCC1 [Compound 86a, 4-(6-cyclohexyl-7-methoxyimidazo[1,2-b]pyridazin-3-yl)-N-((3S,4S)-4-fluoropyrrolidin-3-yl)pyrimidin-2-amine] | 16 nM | < 0.5 nM | 18 nM | 1 nM | 142 nM |  |  |
| F[C@H]1CNC[C@@H]1Nc1cncc(-c2cnc3cc(OC4CC4)c(C4CC4)nn23)n1 [Compound 14a, 6-(7-cyclopropoxy-6-cyclopropylimidazo[1,2-b]pyridazin-3-yl)-N-((3S,4S)-4-fluoropyrrolidin-3-yl)pyrazin-2-amine] | 117 nM | < 0.5 nM | 101 nM | 16 nM | 318 nM |  |  |
